Molecular target: Oxoeicosanoid receptor 1 (Homo sapiens, UniProt Q8TDS5)
Sequence (Q8TDS5 as listed by the source): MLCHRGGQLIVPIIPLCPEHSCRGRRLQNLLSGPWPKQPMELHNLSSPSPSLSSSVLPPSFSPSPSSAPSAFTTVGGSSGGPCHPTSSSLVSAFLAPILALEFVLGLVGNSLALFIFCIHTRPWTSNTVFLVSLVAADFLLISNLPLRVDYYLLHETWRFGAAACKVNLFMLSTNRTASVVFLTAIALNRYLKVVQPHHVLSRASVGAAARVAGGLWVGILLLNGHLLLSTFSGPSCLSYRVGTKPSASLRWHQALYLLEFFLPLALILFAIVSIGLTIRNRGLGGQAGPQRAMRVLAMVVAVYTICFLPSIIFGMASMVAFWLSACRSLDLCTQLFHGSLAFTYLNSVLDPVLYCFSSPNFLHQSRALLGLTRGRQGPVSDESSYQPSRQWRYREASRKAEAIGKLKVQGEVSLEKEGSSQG

| Ki | SMILES |
| --- | --- |
| 6 µM | CC/C=C\C/C=C\C/C=C\C/C=C\C/C=C\CCCC(=O)O [5,8,11,14,17-EICOSAPENTAENOIC ACID] |
| 3.7 µM | CCCCC/C=C\C/C=C\C/C=C\CCCCCCC(=O)O [(Z,Z,Z)-8,11,14-Eicosatrienoic acid] |
| 1.6 µM | CC/C=C\C/C=C\C/C=C\C/C=C\C/C=C\C/C=C\CCC(=O)O [all-cis-docosa-4,7,10,13,16,19-hexaenoic acid] |

Reference: BindingDB's records for doi:10.1074/jbc.M203194200 (Tanabe Seiyaku, 2002)
